Experiments:
Test in all cases: Weeding effect in post-emergence stage
Format in all cases: in vivo
Settings in all cases: 250 g/ha; 2 leaf stage; 15 days after application; fresh weight control rate
Setaria viridis = system: Setaria viridis
How it was run: (§1)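 Greenhouse pot-grown weeds were sprayed at the 2-leaf stage, 2 weeks after sowing, with compound in acetone/Tween 80 plus 1.5 L/ha methyl oleate EC, at 500, 250, 125, 60, 30 or 15 g/ha. Fresh-weight growth control was scored 15 days later on a 0–5 scale, mean of three repeats.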

Echinochloa crusgali = system: Echinochloa crusgali
How it was run: as §1

Digitaria sanguinalis = system: Digitaria sanguinalis
How it was run: as §1

Amaranthus retroflexus = system: Amaranthus retroflexus
How it was run: as §1

Abutilon theophrasti = system: Abutilon theophrasti
How it was run: as §1

SMILES	weeding effect in post-emergence stage, activity level (growth control rate), Setaria viridis (Setaria viridis)	weeding effect in post-emergence stage, activity level (growth control rate), Echinochloa crusgali (Echinochloa crusgali)	weeding effect in post-emergence stage, activity level (growth control rate), Digitaria sanguinalis (Digitaria sanguinalis)	weeding effect in post-emergence stage, activity level (growth control rate), Amaranthus retroflexus (Amaranthus retroflexus)	weeding effect in post-emergence stage, activity level (growth control rate), Abutilon theophrasti (Abutilon theophrasti)
COc1c(C(=O)Nc2nnc(C)o2)ccc(C(F)(F)F)c1[S@+]([O-])C(C)C [Compound 307]	5 (Level 5: growth control rate is above 85%)	5 (Level 5: growth control rate is above 85%)	5 (Level 5: growth control rate is above 85%)	5 (Level 5: growth control rate is above 85%)	5 (Level 5: growth control rate is above 85%)
COc1c(C(=O)Nc2nnc(C)o2)ccc(C(F)(F)F)c1[S@+]([O-])CCC(C)(C)C [Compound 309]	5 (Level 5: growth control rate is above 85%)	5 (Level 5: growth control rate is above 85%)	5 (Level 5: growth control rate is above 85%)	5 (Level 5: growth control rate is above 85%)	5 (Level 5: growth control rate is above 85%)
C=CCC[S@@+]([O-])c1c(C(F)(F)F)ccc(C(=O)Nc2nnc(C)o2)c1OC [Compound 312]	5 (Level 5: growth control rate is above 85%)	5 (Level 5: growth control rate is above 85%)	5 (Level 5: growth control rate is above 85%)	5 (Level 5: growth control rate is above 85%)	5 (Level 5: growth control rate is above 85%)
CC=CC[S+]([O-])c1c(C(F)(F)F)ccc(C(=O)Nc2nnc(C)o2)c1OC (stereo not drawn) [Compound 313]	5 (Level 5: growth control rate is above 85%)	5 (Level 5: growth control rate is above 85%)	5 (Level 5: growth control rate is above 85%)	5 (Level 5: growth control rate is above 85%)	5 (Level 5: growth control rate is above 85%)
C#CC[S@@+]([O-])c1c(C(F)(F)F)ccc(C(=O)Nc2nnc(C)o2)c1OC [Compound 314]	5 (Level 5: growth control rate is above 85%)	5 (Level 5: growth control rate is above 85%)	5 (Level 5: growth control rate is above 85%)	5 (Level 5: growth control rate is above 85%)	5 (Level 5: growth control rate is above 85%)
C#CCC[S@@+]([O-])c1c(C(F)(F)F)ccc(C(=O)Nc2nnc(C)o2)c1OC [Compound 315]	5 (Level 5: growth control rate is above 85%)	5 (Level 5: growth control rate is above 85%)	5 (Level 5: growth control rate is above 85%)	5 (Level 5: growth control rate is above 85%)	5 (Level 5: growth control rate is above 85%)
CC#CC[S@@+]([O-])c1c(C(F)(F)F)ccc(C(=O)Nc2nnc(C)o2)c1OC [Compound 316]	5 (Level 5: growth control rate is above 85%)	5 (Level 5: growth control rate is above 85%)	5 (Level 5: growth control rate is above 85%)	5 (Level 5: growth control rate is above 85%)	5 (Level 5: growth control rate is above 85%)
COc1c(C(=O)Nc2nnc(C)o2)ccc(C(F)(F)F)c1[S@+]([O-])CCF [Compound 319]	5 (Level 5: growth control rate is above 85%)	5 (Level 5: growth control rate is above 85%)	5 (Level 5: growth control rate is above 85%)	5 (Level 5: growth control rate is above 85%)	5 (Level 5: growth control rate is above 85%)
COc1c(C(=O)Nc2nnc(C)o2)ccc(C(F)(F)F)c1[S@+]([O-])CCCF [Compound 320]	5 (Level 5: growth control rate is above 85%)	5 (Level 5: growth control rate is above 85%)	5 (Level 5: growth control rate is above 85%)	5 (Level 5: growth control rate is above 85%)	5 (Level 5: growth control rate is above 85%)
COc1c(C(=O)Nc2nnc(C)o2)ccc(C(F)(F)F)c1[S@@+]([O-])C(F)F [Compound 322]	5 (Level 5: growth control rate is above 85%)	5 (Level 5: growth control rate is above 85%)	5 (Level 5: growth control rate is above 85%)	5 (Level 5: growth control rate is above 85%)	5 (Level 5: growth control rate is above 85%)
COc1c(C(=O)Nc2nnc(C)o2)ccc(C(F)(F)F)c1[S@+]([O-])CC(F)F [Compound 323]	5 (Level 5: growth control rate is above 85%)	5 (Level 5: growth control rate is above 85%)	5 (Level 5: growth control rate is above 85%)	5 (Level 5: growth control rate is above 85%)	5 (Level 5: growth control rate is above 85%)
COc1c(C(=O)Nc2nnc(C)o2)ccc(C(F)(F)F)c1[S@+]([O-])CC(F)(F)F [Compound 324]	5 (Level 5: growth control rate is above 85%)	5 (Level 5: growth control rate is above 85%)	5 (Level 5: growth control rate is above 85%)	5 (Level 5: growth control rate is above 85%)	5 (Level 5: growth control rate is above 85%)

— US12643871B2, “Aryl formamide compound containing chiral sulfur oxide or salt thereof, preparation method, herbicidal composition and use thereof” (Qingdao Kingagroot Chemical Compound Co., Ltd., priority 2019, dated 2026)
